Assay results taken from publication PMC6801819, “Exogenous Iron Increases Fasciocidal Activity and Hepatocellular Toxicity of the Synthetic Endoperoxides OZ78 and MT04” (International Journal of Molecular Sciences, 2019).

Experiments:
[1] = system: adult F. hepatica; assay: In vitro/ex vivo adult worm viability assay; type: cell-based, Fasciola hepatica; settings: iron or hemin with 1% DMSO, no drug, 48 h or 72 h
Experimental: The experiments were performed, as described previously. Adult F. hepatica were collected from bovine liver bile ducts obtained from the local slaughterhouse (Basel, Switzerland). After careful washing, a single adult worm was placed per well (6-well plate, Costar, MA, USA) containing 5.4 mL RPMI 1640 (Gibco, N.Y., USA), supplemented with 1% (v/v) antibiotics (50 µg/mL streptomycin and 50 U/mL penicillin), 1% (v/v) drug solution, […] Control worms were incubated in 1% (v/v) DMSO combined with iron or hemin. Experiments were conducted in triplicates and repeated once. Cultures were kept at 37 °C in an atmosphere of 5% CO2. The viabilities of treated and untreated worms were monitored at 0, 24, 48, and 72 h. Worms were examined by eye and/or using a dissecting microscope (20× lenses). The viability of adult flukes was scored using the following scale: 4: normal activity; movements were visible without a microscope, 3: reduced activities, 2: very weak activities detected only using microscopic magnification, and 1: death of worm (no movement observed for two min using a microscope).

[2] = system: HepG2 cells; assay: Adenylate kinase leakage (membrane integrity test); type: cell-based, human
Experimental: (§1) Stock solutions of the drugs tested were prepared in DMSO 100% (v/v).
(§2) In viability assays, HepG2 cells were treated with 0.1% Triton-X or 0.1% DMSO for positive or negative control, respectively.
The assay was used according to the protocol supplied by the manufacturer.

[3] = system: HepG2 cells; assay: Cellular ATP content (CellTiter-Glo); type: cell-based, human
Experimental: as §1, §2
To assess cellular ATP content, HepG2 cells were seeded in white-wall 96-well plates with a clear bottom (Nunc). One day after seeding, cells were treated with the respective drugs. […] Luminescence was measured using Tecan M200 Infinite Pro.

[4] = system: HepG2 cells; assay: Cellular reactive oxygen species (DCF-DA); type: cell-based, human
Experimental: Stock solutions of the drugs tested were prepared in DMSO 100% (v/v). […] LC-MS measurements confirmed the stability of the compounds (data not shown). Treatments with AS, MT04, or OZ78 (100 or 500 µM) were performed either alone or in combination with 8% (v/v) hemin or FeCl2 solution for 24 h. The final iron concentration used was 122 µM (stock 1.5 mM) based on previous in vitro studies with F. hepatica. Dichlorodihydrofluorescein diacetate (DCF-DA) dissolved in DMSO was used to assess cellular formation of reactive oxygen species (ROS). HepG2 cells were seeded in a black-wall 96 well plate with a clear bottom as described above. Briefly, 30 min before treatment started, DCF-DA was added to the cells at a final concentration of 25 µM. DCF-DA was removed completely before the drugs were added. ROS was measured after 90 min and 24 h of drug exposure using a Tecan M200 Infinite Pro (excitation 485 nm, emission 535 nm).

In the case of `[Cl][Fe][Cl]` [Fe^2+, Fe(II)chloride], the “viability of adult F. hepatica” value [1] is reported as “slight reduction in viability”, the “cytotoxicity (AK release)” value [2] is reported as “not cytotoxic” and the “impact on cellular ATP content” value [3] is reported as “no impact on cellular ATP content”. The “increase in ROS compared to DMSO, factor” value [4] was “did not trigger ROS production”.
With hemin [reference compound] the “viability of adult F. hepatica” value [1] was “slight reduction in viability” and the “impact on cellular ATP content” value [3] was “no impact on cellular ATP content”.
